Measurements from patent US20240335569A1, “FIBROBLAST ACTIVATION PROTEIN INHIBITORS AND USE THEREOF” (3 B PHARMACEUTICALS GMBH, priority 2021, published 2024).

What was measured:
[1] = target: FAP-expressing human WI-38 fibroblasts (Homo sapiens (Human), UniProt Q12884); experiment: FACS binding assay (competitive, Cy5-labeled 3BP-2935)
Procedure: In order to determine binding of compounds according to the present invention to FAP-expressing cells, a competitive FACS binding assay was established. […] Cells were diluted in FACS buffer to a final concentration of 100.000 cells per ml and 200 μl of the cell suspension are transferred to a u-shaped non-binding 96-well plate (Greiner). […] Cell were washed twice with FACS buffer (see above) and resuspended in 200 μl FACS buffer. Cells were analyzed in an Attune NxT flow cytometer (Thermo Fisher Scientific). Median fluorescence intensities (Cy5 channel) were calculated by Attune NxT software and plotted against test compound concentrations. Four parameter logistic (4PL) curve fitting and pIC50 calculations were performed using ActivityBase software.

Human recombinant FAP [2] = target: T1, Human recombinant FAP (Homo sapiens (Human), UniProt Q12884); experiment: FAP protease activity assay (human), FRET-based; format: biochemical
Procedure: (§1) In order to determine the inhibitory activity a FRET-based FAP protease activity assay was established.
Four parameter logistic (4PL) curve fitting and pIC50 calculations were performed using ActivityBase software (IDBS).
Target sequence in this assay (Q12884 26-760): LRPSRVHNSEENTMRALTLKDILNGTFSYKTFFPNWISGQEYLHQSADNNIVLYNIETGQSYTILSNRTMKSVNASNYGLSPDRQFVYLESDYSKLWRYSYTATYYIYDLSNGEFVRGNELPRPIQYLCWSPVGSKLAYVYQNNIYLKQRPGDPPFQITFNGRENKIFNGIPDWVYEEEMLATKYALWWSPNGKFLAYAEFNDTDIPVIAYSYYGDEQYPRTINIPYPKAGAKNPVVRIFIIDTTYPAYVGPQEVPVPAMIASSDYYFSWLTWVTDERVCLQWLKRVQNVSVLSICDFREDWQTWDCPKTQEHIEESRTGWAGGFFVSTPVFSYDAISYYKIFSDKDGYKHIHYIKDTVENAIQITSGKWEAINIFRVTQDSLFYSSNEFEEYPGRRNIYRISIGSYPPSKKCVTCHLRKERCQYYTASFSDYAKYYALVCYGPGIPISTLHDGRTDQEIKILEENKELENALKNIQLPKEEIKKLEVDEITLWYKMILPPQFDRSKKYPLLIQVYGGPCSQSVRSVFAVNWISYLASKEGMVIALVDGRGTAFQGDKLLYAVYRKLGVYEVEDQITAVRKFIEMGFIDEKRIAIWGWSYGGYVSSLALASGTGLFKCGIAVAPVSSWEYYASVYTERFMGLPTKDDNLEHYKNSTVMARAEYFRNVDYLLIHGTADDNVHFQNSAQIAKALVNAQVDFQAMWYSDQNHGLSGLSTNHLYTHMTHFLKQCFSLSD

Recombinant mouse FAP = Recombinant mouse FAP (Mus musculus (Mouse), UniProt P97321); experiment: FAP protease activity assay (mouse), FRET-based; format: biochemical
Procedure: as §1
Four parameter logistic (4PL) curve fitting and pIC50 calculations were performed using ActivityBase software.

Recombinant human DPP4 = Recombinant human DPP4 (Homo sapiens (Human), UniProt P27487); experiment: DPP4 protease activity assay; format: biochemical
Procedure: (§2) The PREP activity assay was performed using the FACS buffer (PBS including 1% FBS, Sigma-Aldrich, Cat #D8537). […] The DPP4 activity assay was performed in DPP assay buffer (25 mM Tris, pH 8.0). […] Four parameter logistic (4PL) curve fitting and pIC50 calculations were performed using ActivityBase software.

Human recombinant FAP [3] = target: T1, Human recombinant FAP; experiment: Surface plasmon resonance assay (Biacore T200, SCK); format: binding; details: for pKD (Biacore): SPR; for HL [min] (Biacore): SPR dissociation half-life
Procedure: Surface plasmon resonance studies were performed using a Biacore™ T200 SPR system (Cytiva, formerly GE Healthcare). Briefly, polarized light is directed towards a gold-labeled sensor surface, and minimum intensity reflected light is detected. The angle of reflected light changes as molecules bind and dissociate. […] Test compounds are contacted with the loaded surface, and a real-time interaction profile with the FAP ligand is recorded in a sensorgram. In real-time, the association and dissociation of a binding interaction is measured, enabling calculation of association and dissociation rate constants and the corresponding affinity constants. Importantly, a background response is generated due to the difference in the refractive indices of the running and sample buffers, as well as unspecific binding of the test compounds to the flow cell surface. This background is measured and subtracted by running the sample on a control flow cell coated with the same density of capture antibody in the absence of immobilized FAP. Furthermore, baseline drift correction of the binding data is performed, which is caused by slow dissociation of the captured FAP from the immobilized antibody. This drift is measured by injecting running buffer through a flow cell with the antibody and FAP immobilized to the sensor surface.
Biacore™ CM5 sensor chips were used. […] A 150 μL aliquot was transferred into plastic vials and placed into the sample rack of the Biacore™ T200 instrument. Amine Coupling Kit Reagent solutions were transferred into plastic vials and placed into the sample rack: 90 μL of 0.4 M 1-ethyl-3-(3-dimethylaminopropyl) carbodiimide (EDC), and 90 μL of 0.1 M N-hydroxysuccinimide (NHS). A 130 μL aliquot of 1 M ethanolamine-HCl, pH 8.5, was transferred into plastic vials and placed into the sample rack. The Biacore™ liquid system was set-up as follows: Separate bottles containing distilled water (1 L), Running Buffer (500 mL), as well as an empty bottle for waste were placed onto the buffer tray. A preinstalled program for immobilization was used, with an immobilization level of 7000 RU. Immobilization was performed at 25° C. The immobilization procedure of anti-FAP antibodies was performed, as described in the Table 4.
Human recombinant FAP was diluted in Running Buffer to a final concentration of 20 μg/mL. A 100 μL aliquot of human FAP-Working-Solution was transferred into plastic vials and placed into a sample rack. A 0.5 mM Compound-Stock-Solution was prepared by dissolving each compound in DMSO. For each test compound, Compound-Stock-Solutions were diluted in Running Buffer (HBST) at 500 nM and further diluted with HBST-DMSO Buffer (0.1% DMSO). SPR binding analyses for binary complexes were performed in SCK mode at 25° C. Following three SCK measurements, a baseline drift was assessed by injecting running buffer through a flow cell, with the antibody and FAP immobilized to the sensor surface.
For each test compound, SPR raw data in the form of resonance units (RU) were plotted as sensorgrams using the Biacore™ T200 control software. The signal from the blank sensorgram was subtracted from that of the test compound sensorgram (blank corrected). The blank corrected sensorgram was corrected for baseline drift by subtracting the sensorgram of a SCK run without the test compound (running buffer only). The association rate (kon), dissociation rate (koff), dissociation constant (KD), and t1/2 were calculated from Blank-normalized SPR data using the 1:1 Langmuir binding model from the Biacore™ T200 evaluation software. Raw data and fit results were imported as text files in IDBS. The pKD value (negative decadic logarithm of dissociation constant) was calculated in the IDBS excel template.
Target sequence in this assay (Q12884 whole entry): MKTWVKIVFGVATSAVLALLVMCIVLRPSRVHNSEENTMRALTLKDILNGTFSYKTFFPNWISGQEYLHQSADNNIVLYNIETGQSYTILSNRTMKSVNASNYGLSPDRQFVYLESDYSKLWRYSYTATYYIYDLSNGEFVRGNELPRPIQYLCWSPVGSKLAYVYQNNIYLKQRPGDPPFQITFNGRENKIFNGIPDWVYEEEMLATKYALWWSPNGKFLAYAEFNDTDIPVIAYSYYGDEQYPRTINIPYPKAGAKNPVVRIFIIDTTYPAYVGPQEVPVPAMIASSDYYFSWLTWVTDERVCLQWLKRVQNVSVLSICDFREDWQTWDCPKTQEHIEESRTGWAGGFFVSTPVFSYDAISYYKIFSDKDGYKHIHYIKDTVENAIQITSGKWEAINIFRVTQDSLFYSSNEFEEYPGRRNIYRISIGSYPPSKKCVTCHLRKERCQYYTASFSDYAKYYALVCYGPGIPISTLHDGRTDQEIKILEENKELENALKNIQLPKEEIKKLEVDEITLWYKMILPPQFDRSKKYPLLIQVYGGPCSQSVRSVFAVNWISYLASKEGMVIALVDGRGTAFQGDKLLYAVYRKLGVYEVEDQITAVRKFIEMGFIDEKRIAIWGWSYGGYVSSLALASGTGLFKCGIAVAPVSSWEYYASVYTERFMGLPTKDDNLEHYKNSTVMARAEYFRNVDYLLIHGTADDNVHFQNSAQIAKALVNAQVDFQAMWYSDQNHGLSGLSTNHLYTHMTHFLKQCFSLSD

recombinant human PREP = recombinant human PREP (Homo sapiens (Human), UniProt P48147); experiment: PREP protease activity assay; format: biochemical
Procedure: as §2

HT-29 cells = experiment: Stability in the presence of tumor cells (HT-29), FAP IC50 of supernatants; format: in vitro ADME, human
Procedure: Cells were cultured in McCoys's 5A modified medium (Biochrom, #F1015) including 10% fetal bovine serum (FBS), 2 mM L-glutamine, 100 U/ml penicillin and 100 μg/mL streptomycin (growth medium). […] 1 mL of the cell suspension were seeded in 24-well plates and incubated overnight at 37° C. and 5% CO2. The next day, cells were washed twice and growth medium was exchanged against DMEM without phenol red (Biochrom, #F0475) including 2 mM L-glutamine. Test compound was diluted in DMEM without phenol red (Biochrom, #F0475) including 2 mM L-glutamine. 400 μL of a 10 μM solution of the test compound was incubated for 24 hours at 37° C. and 5% CO2 in the presence of cells as well as in control wells (without cells) of the same 24-well plate.
25 μL of a 30 μM substrate solution, diluted in assay buffer, was added. All solutions were equilibrated at 37° C. prior to use. […] RFU/sec was calculated by SoftMax Pro software and plotted against test compound concentration. Four parameter logistic (4PL) curve fitting and IC50/pIC50 calculations were performed using GraphPad Prism 9.1 software.
The stability of exemplary compounds was further assessed in the presence of a variety of human cell lines from different tissue origins. […] Compounds were diluted in DMEM without phenol red (Biochrom, #F0475) including 2 mM L-glutamine. 400 μL of a 10 μM solution of the test compound was incubated for 24 hours at 37° C. and 5% CO2 in the presence of cells as well as in control wells (without cells) of the same 24-well plate. IC50/pIC50 determination of the supernatants was performed as described above.

[4] = human FAP protease activity, FRET
[5] = recombinant mouse FAP protease activity
[6] = FAP-expressing WI-38 fibroblasts
[7] = recombinant human FAP, FRET protease activity
[8] = recombinant mouse FAP, FRET protease activity

recombinant human PREP, sequence (P48147 whole entry): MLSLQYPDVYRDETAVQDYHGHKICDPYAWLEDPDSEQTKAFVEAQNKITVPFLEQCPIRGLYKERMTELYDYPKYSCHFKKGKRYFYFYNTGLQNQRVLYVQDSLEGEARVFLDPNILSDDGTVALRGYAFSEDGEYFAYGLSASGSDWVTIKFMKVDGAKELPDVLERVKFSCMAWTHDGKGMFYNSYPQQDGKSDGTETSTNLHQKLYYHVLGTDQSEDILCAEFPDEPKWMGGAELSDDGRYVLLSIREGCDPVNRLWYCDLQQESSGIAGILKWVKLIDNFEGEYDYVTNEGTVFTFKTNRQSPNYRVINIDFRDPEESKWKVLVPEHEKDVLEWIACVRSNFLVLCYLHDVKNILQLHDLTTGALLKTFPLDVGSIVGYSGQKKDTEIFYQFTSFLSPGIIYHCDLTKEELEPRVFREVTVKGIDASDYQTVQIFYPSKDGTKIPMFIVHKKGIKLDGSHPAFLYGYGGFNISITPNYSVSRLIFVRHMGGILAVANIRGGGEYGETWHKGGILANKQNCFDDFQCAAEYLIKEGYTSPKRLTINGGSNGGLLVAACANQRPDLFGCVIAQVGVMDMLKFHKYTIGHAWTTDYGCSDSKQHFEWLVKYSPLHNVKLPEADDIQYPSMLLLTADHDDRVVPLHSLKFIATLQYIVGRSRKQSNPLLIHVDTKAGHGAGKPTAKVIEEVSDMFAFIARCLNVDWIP
FAP-expressing human WI-38 fibroblasts, sequence (Q12884 whole entry): as the sequence (Q12884 whole entry) above
Recombinant human DPP4, sequence (P27487 whole entry): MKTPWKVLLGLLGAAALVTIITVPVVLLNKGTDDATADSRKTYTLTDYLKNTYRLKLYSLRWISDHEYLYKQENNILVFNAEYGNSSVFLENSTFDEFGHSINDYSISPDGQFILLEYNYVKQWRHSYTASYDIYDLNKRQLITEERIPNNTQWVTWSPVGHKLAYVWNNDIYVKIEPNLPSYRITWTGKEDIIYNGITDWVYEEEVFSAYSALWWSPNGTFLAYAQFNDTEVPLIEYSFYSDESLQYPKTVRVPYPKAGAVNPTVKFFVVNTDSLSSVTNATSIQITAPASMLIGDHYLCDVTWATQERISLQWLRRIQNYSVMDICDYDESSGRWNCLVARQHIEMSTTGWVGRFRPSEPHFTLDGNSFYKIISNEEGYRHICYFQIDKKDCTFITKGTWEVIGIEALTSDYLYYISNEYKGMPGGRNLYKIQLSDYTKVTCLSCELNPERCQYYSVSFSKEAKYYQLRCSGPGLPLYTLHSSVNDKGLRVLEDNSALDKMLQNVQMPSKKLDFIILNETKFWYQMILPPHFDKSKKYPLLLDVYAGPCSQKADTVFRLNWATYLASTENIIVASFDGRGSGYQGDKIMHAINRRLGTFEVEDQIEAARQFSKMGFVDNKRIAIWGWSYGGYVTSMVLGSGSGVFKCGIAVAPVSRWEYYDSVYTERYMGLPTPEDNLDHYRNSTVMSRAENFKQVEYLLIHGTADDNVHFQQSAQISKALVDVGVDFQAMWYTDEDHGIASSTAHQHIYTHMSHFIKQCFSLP
Recombinant mouse FAP, sequence (P97321 whole entry): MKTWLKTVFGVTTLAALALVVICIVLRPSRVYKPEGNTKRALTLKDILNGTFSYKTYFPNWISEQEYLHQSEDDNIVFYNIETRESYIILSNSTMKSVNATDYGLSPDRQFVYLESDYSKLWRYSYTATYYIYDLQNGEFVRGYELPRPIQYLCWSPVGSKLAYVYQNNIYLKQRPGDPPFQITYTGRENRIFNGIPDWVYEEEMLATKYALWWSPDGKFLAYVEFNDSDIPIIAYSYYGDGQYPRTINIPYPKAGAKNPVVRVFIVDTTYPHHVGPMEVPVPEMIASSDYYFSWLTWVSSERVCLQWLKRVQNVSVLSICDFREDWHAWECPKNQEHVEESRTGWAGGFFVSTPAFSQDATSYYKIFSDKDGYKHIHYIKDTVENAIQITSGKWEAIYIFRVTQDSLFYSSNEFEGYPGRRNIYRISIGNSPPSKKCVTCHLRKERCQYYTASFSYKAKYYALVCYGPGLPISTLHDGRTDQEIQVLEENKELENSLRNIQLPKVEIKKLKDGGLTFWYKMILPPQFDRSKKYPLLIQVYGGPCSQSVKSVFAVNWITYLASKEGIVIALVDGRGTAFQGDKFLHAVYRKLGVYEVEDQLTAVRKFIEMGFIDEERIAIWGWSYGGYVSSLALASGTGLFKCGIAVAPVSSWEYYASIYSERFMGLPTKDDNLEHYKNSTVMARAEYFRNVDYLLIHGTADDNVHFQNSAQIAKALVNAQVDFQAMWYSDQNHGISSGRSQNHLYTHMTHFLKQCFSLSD

Compound | pIC50 (FACS) ([1]; WI-38 fibroblasts) | pIC50 (Activity) (Human recombinant FAP [2]; [4]) | pIC50 (mouseFAP) (Recombinant mouse FAP; [5]) | pIC50 (DPP4) (Recombinant human DPP4) | pKD (Biacore) (Human recombinant FAP [3]) | HL [min] (Biacore) (Human recombinant FAP [3]) | pIC50 (FACS) [1, 6] | pIC50 (Activity) (Human recombinant FAP [2]; [7]) | further results
CS(=O)(=O)c1ccc(-c2ccc3nccc(C(=O)NCC(=O)N4C[C@H](F)C[C@H]4C#N)c3c2)cc1 [Compound 3BP-3773] | 7.3 | 8.5 | 8 | <6 |  |  |  |  | 
N#C[C@@H]1CCCN1C(=O)CNC(=O)c1ccnc2ccc(-c3ccc(C(=O)NCCCNC(O)CN4CCN5CCN6CCN(CC4)CC(=O)[O][Eu]([O]C(=O)C6)[O]C(=O)C5)cc3)cc12 (some centres unmarked) [Compound 3BP-3830] | 8.5 | 9.3 | 8.7 | <6 | 10 | 64 |  |  | 
CS(=O)(=O)c1cccc(-c2ccc3c(C(=O)NCC(=O)N4CCC[C@H]4C#N)ccnc3c2)c1 [Compound 3BP-3133] |  |  |  | <6 | 9.3 | 5.7 | 8.2 | 8.7 | pIC50 (PREP) (recombinant human PREP): <6
N#C[C@@H]1CC(F)(F)CN1C(=O)CNC(=O)c1ccnc2ccc(OCCCN3CCN(C(=O)CN4CCN5CCN6CCN(CC4)CC(=O)[O][Lu]([O]C(=O)C6)[O]C(=O)C5)CC3)cc12 [Compound 3BP-3469] |  |  |  | <6 | 10.2 | 35.5 | 8.7 | 9.3 | pIC50 (mouseFAP) (Recombinant mouse FAP; [8]): 9.1; pIC50 (incubation in cell medium w/o HT-29) (HT-29 cells; 10 μM compound, 24 hours at 37° C. in control wells without cells, supernatant tested on recombinant human FAP): 9.2; pIC50 (incubation in the presence of HT-29 cells) (HT-29 cells; 10 μM compound, 24 hours at 37° C. with HT-29 cells, supernatant tested on recombinant human FAP): 8.3; Residual activity after incubation with HT-29 cells for 24 hours (%) (HT-29 cells; HT-29 cells, 24 hours): 13%
CS(=O)(=O)c1cc(F)c(-c2ccc3nccc(C(=O)NCC(=O)N4CCC[C@H]4C#N)c3c2)c(F)c1 [Compound 3BP-3828] | 8.5 | 9.3 | 9 | <6 |  |  |  |  | 
O=C(NCC(=O)N1CCC[C@H]1C(=O)c1nccs1)c1ccnc2ccccc12 [Compound 3BP-3206] |  |  |  | <6 | 7.9 | 0.3 | 7 | 7.3 | pIC50 (PREP) (recombinant human PREP): 7.6
Cc1cc(S(C)(=O)=O)ccc1-c1ccc2nccc(C(=O)NCC(=O)N3CCC[C@H]3C#N)c2c1 [Compound 3BP-3953] | 7.9 | 9.2 | 8.9 | <6 |  |  |  |  | 
Cc1cc2nccc(C(=O)NCC(=O)N3CC(F)(F)C[C@H]3C#N)c2cc1-c1ccc(S(C)(=O)=O)cc1 [Compound 3BP-4026] | 8.9 | 9.3 | 8.8 |  |  |  |  |  | 
N#C[C@@H]1CC(F)(F)CN1C(=O)CNC(=O)c1ccnc2ccc(OCCCN3CCN(C(=O)CN4CCN5CCN6CCN(CC4)CC(=O)[O][Eu]([O]C(=O)C6)[O]C(=O)C5)CC3)cc12 [Compound 3BP-3663] |  |  |  |  |  |  | 8.6 | 9.3 | pIC50 (mouseFAP) (Recombinant mouse FAP; [8]): 9.1
Cc1cc(S(C)(=O)=O)ccc1-c1ccc2nccc(C(=O)NCC(=O)N3CC(F)(F)C[C@H]3C#N)c2c1 [Compound 3BP-3952] | 8.7 | 9.3 | 8.8 | 6.1 |  |  |  |  | 
CS(=O)(=O)c1cccc(-c2ccc3nccc(C(=O)NCC(=O)N4CCC[C@H]4C#N)c3c2)c1 [Compound 3BP-3132] |  |  |  | <6 | 9.4 | 2.5 | 8.4 | 9 | pIC50 (PREP) (recombinant human PREP): <6
N#C[C@@H]1CCCN1C(=O)CNC(=O)c1ccnc2ccc(-c3ccc(C(=O)O)cc3)cc12 [Compound 3BP-3295] |  |  |  |  |  | 11 |  |  | IC50 (recombinant human PREP): > 1000 nM
N#C[C@@H]1CCCN1C(=O)CNC(=O)c1ccnc2cc(-c3cccc(C(=O)O)c3)ccc12 [Compound 3BP-3293] |  |  |  | <6 |  |  | 8.6 | 8.8 | pIC50 (PREP) (recombinant human PREP): <6
N#C[C@@H]1CC(F)(F)CN1C(=O)CNC(=O)c1ccnc2ccc(-c3ccc(C(=O)NCCCNC(O)CN4CCN5CCN6CCN(CC4)CC(=O)[O][Eu]([O]C(=O)C6)[O]C(=O)C5)cc3)cc12 (some centres unmarked) [Compound 3BP-3829] | 8.9 | 9.4 | 8.9 | <6 | >10.5 | >150 |  |  | 
CS(=O)(=O)c1ccc(-c2ccc3nccc(C(=O)NCC(=O)N4C[C@@H](F)C[C@H]4C#N)c3c2)cc1 [Compound 3BP-3774] | 8.8 | 9.2 | 9.2 | <6 |  |  |  |  | 
